This is an account of results in US9181307B2, “Influenza A 2009 pandemic H1N1 polypeptide fragments comprising endonuclease activity and their use” (priority 2010, dated 2015).

In this test the test system is endonucleolytically active site of the Influenza A 2009 pandemic H1N1 PA subunit polypeptide fragment or variant thereof. The experiment in a line: Co-crystallisation / X-ray structure: binding to the endonucleolytically active site. Also on record: species or system Influenza A 2009 pandemic H1N1 virus.
In the case of `O=C(O[C@@H]1Cc2c(O)cc(O)cc2O[C@@H]1c1cc(O)c(O)c(O)c1)c1cc(O)c(O)c(O)c1` [EGCG, [(2R,3R)-5,7-dihydroxy-2-(3,4,5-trihydroxyphenyl)chroman-3-yl]3,4,5-trihydroxybenzoate], the “ability to bind to the endonucleolytically active site” value is “able to bind to the endonucleolytically active site”. Under `O=C(O)/C(O)=C/C(=O)C1(Cc2ccc(Cl)cc2)CCN(CC2CCCCC2)CC1` [EMBL-R05-2, 4-[4-[(4-chlorophenyl)methyl]-1-(cyclohexylmethyl)-4-piperidinyl]-2-hydroxy-4-oxo-2-butenoic acid] stands “able to bind to the endonucleolytically active site”. For `O=C(O)/C(O)=C/C(=O)C1(Cc2ccc(Cl)cc2)CCCN(Cc2ccccc2)C1` (stereo not drawn) [EMBL-R05-3, 4-[3-[(4-chlorophenyl)methyl]-1-(phenylmethyl)-3-piperidinyl]-2-hydroxy-4-oxo-2-butenoic acid], the “ability to bind to the endonucleolytically active site” value is “able to bind to the endonucleolytically active site”.
